From ChEMBL document CHEMBL1201862, “PubChem BioAssay data set” (2004)
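Assay format: 96-well plates, 48-hour exposure. At the GI50, growth is halved.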 The source made the active and inactive calls. No stated cut-off is given here; in the data, active = GI50 up to about 1.1 µM and inactive = higher.

Columns and labels:
Assay in all cases: NCI-60 cell line screen, 48 h
MDA-MB-231 = test system: MDA-MB-231
BT-549 = test system: BT-549
HOP-62 = test system: HOP-62
SN12C = test system: SN12C
SNB-75 = test system: SNB-75
T47D = test system: T47D
SK-OV-3 = test system: SK-OV-3
UACC-257 = test system: UACC-257
786-0 = test system: 786-0
U-251 = test system: U-251
PC-3 = test system: PC-3
IGROV-1 = test system: IGROV-1
RPMI-8226 = test system: RPMI-8226
CCRF-CEM = test system: CCRF-CEM
MOLT-4 = test system: MOLT-4
OVCAR-4 = test system: OVCAR-4
UACC-62 = test system: UACC-62
HCC 2998 = test system: HCC 2998
HCT-15 = test system: HCT-15
SF-539 = test system: SF-539

Structure (SMILES)	GI50 (MDA-MB-231)	GI50 (BT-549)	GI50 (HOP-62)	GI50 (SN12C)	GI50 (SNB-75)	GI50 (T47D)	GI50 (SK-OV-3)	GI50 (UACC-257)	GI50 (786-0)	GI50 (U-251)	GI50 (PC-3)	GI50 (IGROV-1)	GI50 (RPMI-8226)	GI50 (CCRF-CEM)	GI50 (MOLT-4)	GI50 (OVCAR-4)	GI50 (UACC-62)	GI50 (HCC 2998)	GI50 (HCT-15)	GI50 (SF-539)
O=C1O/C(=C\c2ccccc2)N(c2ccccc2)C1=O	> 100 µM (inactive)	> 100 µM (inactive)	> 100 µM (inactive)	> 100 µM (inactive)	> 100 µM (inactive)	> 100 µM (inactive)	> 100 µM (inactive)	> 100 µM (inactive)	> 100 µM (inactive)	> 100 µM (inactive)	> 100 µM (inactive)	> 100 µM (inactive)	> 100 µM (inactive)	> 100 µM (inactive)	> 100 µM (inactive)	> 100 µM (inactive)	> 100 µM (inactive)	> 100 µM (inactive)	> 100 µM	
Cc1nc(C(N)=S)sc1C(=O)CC(=O)C(=O)Nc1ccc(Br)cc1	> 100 µM (inactive)	> 100 µM (inactive)	> 100 µM (inactive)	> 100 µM (inactive)	> 100 µM (inactive)	> 100 µM (inactive)	> 100 µM (inactive)	> 100 µM (inactive)	> 100 µM (inactive)	> 100 µM (inactive)	> 100 µM (inactive)	> 100 µM (inactive)	> 100 µM (inactive)	> 100 µM (inactive)		> 100 µM (inactive)	> 100 µM (inactive)		> 100 µM	> 100 µM (inactive)
N#CCCN(CCC#N)CCN(CCN(CCC#N)CCC#N)CCN(CCC#N)CCC#N	> 100 µM (inactive)	> 100 µM (inactive)	> 100 µM (inactive)	> 100 µM (inactive)	> 100 µM (inactive)	> 100 µM (inactive)	> 100 µM (inactive)	> 100 µM (inactive)	> 100 µM (inactive)	> 100 µM (inactive)	> 100 µM (inactive)	> 100 µM (inactive)	> 100 µM (inactive)		> 100 µM (inactive)	> 100 µM (inactive)		> 100 µM (inactive)	> 100 µM	> 100 µM (inactive)
CCN(CC)C(=S)N/N=C/c1cc([N+](=O)[O-])ccc1O	8.18 µM (inactive)	4.54 µM (inactive)	7.4 µM (inactive)	4.88 µM (inactive)	9.27 µM (inactive)	5.13 µM (inactive)	3.95 µM (inactive)	8.53 µM (inactive)	2.99 µM (inactive)	4.24 µM (inactive)	4.92 µM (inactive)	3.65 µM (inactive)		1.26 µM (inactive)	1.8 µM (inactive)	3.65 µM (inactive)	3.27 µM (inactive)	8.53 µM (inactive)	3.62 µM	6.15 µM (inactive)
COc1ccc(C#CC(=O)O)c(OC)c1	> 100 µM (inactive)	> 100 µM (inactive)	> 100 µM (inactive)	> 100 µM (inactive)		> 100 µM (inactive)	> 100 µM (inactive)	> 100 µM (inactive)	> 100 µM (inactive)	> 100 µM (inactive)	> 100 µM (inactive)		> 100 µM (inactive)	> 100 µM (inactive)	> 100 µM (inactive)	> 100 µM (inactive)	> 100 µM (inactive)	> 100 µM (inactive)	> 100 µM	> 100 µM (inactive)
C[C@]12C[C@H](O)[C@H]3[C@@H](CCC4=CC(=O)CC[C@@]43C)[C@@H]1CC[C@@H]2c1csc(-c2ccccc2)n1	20.1 µM (inactive)	> 100 µM (inactive)	9.53 µM (inactive)	59.7 µM (inactive)	26.4 µM (inactive)	3.15 µM (inactive)	27.5 µM (inactive)	3.48 µM (inactive)	25.2 µM (inactive)	24.9 µM (inactive)	3.32 µM (inactive)	> 68.5 µM (inactive)	3.56 µM (inactive)		0.625 µM (active)	23.2 µM (inactive)	29.4 µM (inactive)		> 100 µM	62.5 µM (inactive)
O=c1[nH]nc(Cc2ccccc2)n1/N=C/c1cccnc1	> 100 µM (inactive)	25 µM (inactive)	> 100 µM (inactive)	> 100 µM (inactive)	> 100 µM (inactive)	> 100 µM (inactive)		> 100 µM (inactive)	> 100 µM (inactive)	> 100 µM (inactive)	> 100 µM (inactive)	> 100 µM (inactive)	> 100 µM (inactive)	> 100 µM (inactive)	> 100 µM (inactive)	> 100 µM (inactive)		> 100 µM (inactive)	> 100 µM	> 100 µM (inactive)
CC(Br)CN1CCOCC1 (stereo not given)	> 100 µM (inactive)	> 100 µM (inactive)	> 100 µM (inactive)	> 100 µM (inactive)		> 100 µM (inactive)	> 100 µM (inactive)	> 100 µM (inactive)	> 100 µM (inactive)	> 100 µM (inactive)	> 100 µM (inactive)	> 100 µM (inactive)	> 100 µM (inactive)				> 100 µM (inactive)	> 100 µM (inactive)	> 100 µM	> 100 µM (inactive)
Cn1c(=O)c2c(nc3sc4nc5ccccc5nc4n32)n(C)c1=O	> 100 µM (inactive)	> 100 µM (inactive)		85.9 µM (inactive)	34.8 µM (inactive)	> 100 µM (inactive)	> 100 µM (inactive)	> 100 µM (inactive)	> 100 µM (inactive)	> 100 µM (inactive)	> 100 µM (inactive)	> 100 µM (inactive)	> 100 µM (inactive)	> 100 µM (inactive)	> 100 µM (inactive)		> 100 µM (inactive)	> 100 µM (inactive)	> 100 µM	> 100 µM (inactive)
COC(=O)C1[C@H](C(=O)OC)C1(Br)CBr (stereo not given in full)	> 100 µM (inactive)	> 100 µM (inactive)	> 100 µM (inactive)	> 100 µM (inactive)	> 100 µM (inactive)	> 100 µM (inactive)	> 100 µM (inactive)	> 100 µM (inactive)	> 100 µM (inactive)	> 100 µM (inactive)	> 100 µM (inactive)	> 100 µM (inactive)	> 100 µM (inactive)		40.1 µM (inactive)	> 100 µM (inactive)	> 100 µM (inactive)	> 100 µM (inactive)	> 100 µM	> 100 µM (inactive)
Nc1ncnc2c1nc(-c1ccccc1)n2C1OC(CO)C(O)C1O (stereo not given)	> 100 µM (inactive)	> 100 µM (inactive)	> 100 µM (inactive)	> 100 µM (inactive)	> 100 µM (inactive)	> 100 µM (inactive)	> 100 µM (inactive)	> 100 µM (inactive)	> 100 µM (inactive)	> 100 µM (inactive)	> 100 µM (inactive)	> 100 µM (inactive)	> 100 µM (inactive)		> 100 µM (inactive)	> 100 µM (inactive)	> 100 µM (inactive)	> 100 µM (inactive)	> 100 µM	> 100 µM (inactive)
